Where two headings read alike, the source gives them in different places. Marks after values point to notes of the source that are not given here.
What was measured:
[1] = system: patients with knee or hip primary osteoarthritis; assay: Four week placebo-controlled trial, most pain over the previous 24 hours on a 100 mm VAS; assay type: in vivo, human
Method: (§1) A four week multicenter randomized double-blind double-dummy placebo-controlled parallel group trial (the study) of four dosing regimens of 5-methyl-2-(2′-chloro-6′-fluoroanilino)phenylacetic acid in patients with knee or hip primary osteoarthritis is performed, using diclofenac as a comparator. Patients are male and female, from 18 to 75 years of age, have a clinical and radiological diagnosis of knee or hip osteoarthritis as defined by the American College of Rheumatology criteria, and have a pain intensity of at least 40 mm (Visual Analog Scale) in the affected joint prior to screening for inclusion in the study. 584 patients are randomized to receive either 50, 100, or 200 mg 5-methyl-2-(2′-chloro-6′-fluoroanilino)phenylacetic acid or 75 mg diclofenac administered orally twice a day, or 400 mg 5-methyl-2-(2′-chloro-6′-fluoroanilino)phenylacetic acid administered orally once a day, or placebo. Drug and placebo are administered in capsules. The comparator, diclofenac, is an extended release tablet that is over-encapsulated to match the placebo. The treatment duration is for 28 days.
(§2) Pharmacokinetics are performed on 52 of the patients who receive 5-methyl-2-(2′-chloro-6′-fluoroanilino)phenylacetic acid. Blood samples are taken at 0, 0.5, 1, 2, 3, 4 and 6 hours following administration of 5-methyl-2-(2′-chloro-6′-fluoroanilino)phenylacetic acid. Plasma concentrations of 5-methyl-2-(2′-chloro-6′-fluoroanilino)phenylacetic acid are measured by an LC/MS assay with a limit of quantitation of 10 ng/ml. Cmax and tmax AUC (0-6) are determined for day 1 and Cmax^ss and tmax^ss AUCτ^ss, Cmin^ss, Cav^ss, peak-trough fluctuation (PTF) and Cl/F at steady state are determined on day 28. The primary efficacy parameter is the most pain experienced over the previous 24 hours on a 100 mm VAS.

[2] = Pharmacokinetics in osteoarthritis patients, plasma concentrations by LC/MS; assay type: in vivo, human; details: for Tmax / Cmax / AUC(0-t) / AUC: plasma; for AUC(0-t): read-out: AUC0-6
Method: as §1, §2

[3] = both sexes, human, po, 50 mg, 50 mg bid oral, day 0
[4] = both sexes, human, po, 50 mg, 50 mg bid oral, day 28
[5] = both sexes, human, po, 100 mg, 100 mg bid oral, day 0
[6] = both sexes, human, po, 100 mg, 100 mg bid oral, day 28
[7] = both sexes, human, po, 200 mg, 200 mg bid oral, day 0
[8] = both sexes, human, po, 200 mg, 200 mg bid oral, day 28
[9] = both sexes, human, po, 400 mg, 400 mg qd oral, day 0
[10] = both sexes, human, po, 400 mg, 400 mg qd oral, day 28

O=C(O)Cc1ccccc1Nc1c(Cl)cccc1Cl [diclofenac, reference compound]
VAS pain, change from baseline ([1]; 75 mg twice a day, extended release tablet, day 7, 100 mm VAS): −27.9 mm | VAS pain, change from baseline ([1]; 75 mg twice a day, extended release tablet, day 14, 100 mm VAS): −30.4 (23.0)* mm | VAS pain, change from baseline ([1]; 75 mg twice a day, extended release tablet, day 28, 100 mm VAS): −31.8 mm

Cc1ccc(Nc2c(F)cccc2Cl)c(CC(=O)O)c1 [5-methyl-2-(2′-chloro-6′-fluoroanilino)phenylacetic acid]
CLss/F ([2]; 50 mg bid oral, day 28): 15.0 ± 4.7 L/h | CLss/F ([2]; 100 mg bid oral, day 28): 13.3 ± 3.3 L/h | CLss/F ([2]; 200 mg bid oral, day 28): 15.0 ± 3.5 L/h | CLss/F ([2]; 400 mg qd oral, day 28): 17.4 ± 6.1 L/h | Dose dependence of AUC and Cmax ([2]; 50, 100, 200 mg twice daily and 400 mg once daily, day 28): dose proportional increase | Tmax ([2]; both sexes, human, oral, all dose groups, read-out: tmax, typical): 2 to 3 h | Cmax [2, 3]: 914 ± 340 ng/mL | AUC(0-t) [2, 3]: 2680 ± 960 ng·h/mL | Tmax ([2]; both sexes, human, po, 50 mg, 50 mg bid oral, day 0, read-out: tmax): 2 h | Cmax [2, 4]: 1010 ± 590 ng/mL | AUC(0-t) [2, 4]: 2810 ± 1210 ng·h/mL | Tmax ([2]; both sexes, human, po, 50 mg, 50 mg bid oral, day 28, read-out: tmax): 2 h | Cmax [2, 5]: 1790 ± 600 ng/mL | AUC(0-t) [2, 5]: 5220 ± 1810 ng·h/mL | Tmax ([2]; both sexes, human, po, 100 mg, 100 mg bid oral, day 0, read-out: tmax): 2.5 h | Cmax [2, 6]: 1860 ± 630 ng/mL | AUC(0-t) [2, 6]: 6010 ± 1890 ng·h/mL | Tmax ([2]; both sexes, human, po, 100 mg, 100 mg bid oral, day 28, read-out: tmax): 2 h | Cmax [2, 7]: 4210 ± 2160 ng/mL | AUC(0-t) [2, 7]: 11700 ± 3570 ng·h/mL | Tmax ([2]; both sexes, human, po, 200 mg, 200 mg bid oral, day 0, read-out: tmax): 3 h | Cmax [2, 8]: 4380 ± 3100 ng/mL | AUC(0-t) [2, 8]: 11100 ± 3020 ng·h/mL | Tmax ([2]; both sexes, human, po, 200 mg, 200 mg bid oral, day 28, read-out: tmax): 2 h | Cmax [2, 9]: 5540 ± 1800 ng/mL | AUC(0-t) [2, 9]: 17200 ± 5280 ng·h/mL | Tmax ([2]; both sexes, human, po, 400 mg, 400 mg qd oral, day 0, read-out: tmax): 3 h | Cmax [2, 10]: 4790 ± 2640 ng/mL | AUC(0-t) [2, 10]: 15300 ± 5590 ng·h/mL | Tmax ([2]; both sexes, human, po, 400 mg, 400 mg qd oral, day 28, read-out: tmax): 2 h | AUC ([2]; both sexes, human, 50 mg bid oral, day 28): 3660 ± 1290 ng·h/mL | AUC ([2]; both sexes, human, 100 mg bid oral, day 28): 8100 ± 2730 ng·h/mL | AUC ([2]; both sexes, human, 200 mg bid oral, day 28): 14000 ± 3220 ng·h/mL | AUC ([2]; both sexes, human, 400 mg qd oral, day 28): 25800 ± 9200 ng·h/mL | half-life ([2]; both sexes, human, blood plasma, oral administration): 3 to 6 h | VAS pain, change from baseline ([1]; 50 mg bid, day 7, 100 mm VAS): −19.5 (19.1)* mm | VAS pain, change from baseline ([1]; 50 mg bid, day 14, 100 mm VAS): −22.6 (20.9)* mm | VAS pain, change from baseline ([1]; 50 mg bid, day 28, 100 mm VAS): −28.6 mm | VAS pain, change from baseline ([1]; 100 mg bid, day 7, 100 mm VAS): −19.2 (21.6)* mm | VAS pain, change from baseline ([1]; 100 mg bid, day 14, 100 mm VAS): −21.2 (22.6)* mm | VAS pain, change from baseline ([1]; 100 mg bid, day 28, 100 mm VAS): −26.3 mm | VAS pain, change from baseline ([1]; 200 mg bid, day 7, 100 mm VAS): −22.0 (20.8)* mm | VAS pain, change from baseline ([1]; 200 mg bid, day 14, 100 mm VAS): −24.1 (22.8)* mm | VAS pain, change from baseline ([1]; 200 mg bid, day 28, 100 mm VAS): −29.6 mm | Pain relief of 400 mg once daily compared with 200 mg twice daily ([1]; 400 mg once daily): the same or better pain relief as 200 mg twice daily | Mean VAS scores compared with the other dose groups ([1]; 400 mg once daily, day 28, throughout the measurement period): best mean scores | VAS pain, change from baseline ([1]; 400 mg qd, day 7, 100 mm VAS): −26.0 (22.4)*a, b mm | VAS pain, change from baseline ([1]; 400 mg qd, day 14, 100 mm VAS): −27.5 (23.8)* mm | VAS pain, change from baseline ([1]; 400 mg qd, day 28, 100 mm VAS): −33.2 mm | Duration of effective anti-inflammatory treatment after a single oral dose ([1]; about 200 to about 1200 mg per day, immediate-release formulation, humans): 24 h

From US20040186179A1, “Pharmaceutical composition” (priority 2000, published 2004)
